Data from patent publication US20260297085A1, “1 H-PYRROLO[2,3-B]PYRIDIN-4-YL]-2-OXOPYRROLIDINE-3-CARBONITRILE DERIVATIVES AS TYROSINE KINASE 2 (TYK2) INHIBITORS FOR THE TREATMENT OF INFLAMMATORY DISEASES” (BIOGEN MA INC., priority 2023, published 2026).
Structures can show the parent of a compound that is named as a salt.

Columns and labels:
[1] = target: T1, human TYK2 kinase domain (JH1) (Homo sapiens, UniProt P29597); assay: JH1 biochemical assay for TYK2 (ADP-Glo kinase assay, recombinant JH1 catalytic domain, JAK3-974 peptide, 10 μM ATP)
T1 construct: recombinantly generated catalytic kinase (also known as JH1) domain of human JAK1, JAK2, JAK3 and TYK2
T1 sequence (P29597 897-1176 limits assumed): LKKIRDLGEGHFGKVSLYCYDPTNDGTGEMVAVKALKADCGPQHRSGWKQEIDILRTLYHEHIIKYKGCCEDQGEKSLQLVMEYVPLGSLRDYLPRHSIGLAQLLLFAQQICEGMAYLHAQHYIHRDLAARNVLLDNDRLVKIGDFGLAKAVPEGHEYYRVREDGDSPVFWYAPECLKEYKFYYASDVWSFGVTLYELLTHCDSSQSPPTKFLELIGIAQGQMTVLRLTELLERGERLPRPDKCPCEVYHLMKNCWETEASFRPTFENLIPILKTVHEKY
Summary of the method: (§1)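 Kinase 4 nM JAK1 / 0.2 nM JAK2 / 0.3 nM JAK3 / 2 nM TYK2; 50 μM peptide; 100 min. Unused ATP depleted, ADP→ATP, luciferase luminescence. 11-pt 3-fold series from 10 or 1 μM; normalized, 4PL fit → IC50.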

[2] = target: T2, human JAK1 kinase domain (JH1) (Homo sapiens, UniProt P23458); assay: JH1 biochemical assay for JAK1 (ADP-Glo kinase assay, recombinant JH1 catalytic domain, JAK3-342 peptide, 35 μM ATP)
T2 construct: recombinantly generated catalytic kinase (also known as JH1) domain of human JAK1, JAK2, JAK3 and TYK2
Summary of the method: as §1

[3] = target: T3, human JAK2 kinase domain (JH1) (Homo sapiens, UniProt O60674); assay: JH1 biochemical assay for JAK2 (ADP-Glo kinase assay, recombinant JH1 catalytic domain, JAK3-974 peptide, 15 μM ATP)
T3 construct: recombinantly generated catalytic kinase (also known as JH1) domain of human JAK1, JAK2, JAK3 and TYK2
Summary of the method: as §1

[4] = target: T4, human JAK3 kinase domain (JH1) (Homo sapiens, UniProt P52333); assay: JH1 biochemical assay for JAK3 (ADP-Glo kinase assay, recombinant JH1 catalytic domain, JAK3-974 peptide, 4 μM ATP)
T4 construct: recombinantly generated catalytic kinase (also known as JH1) domain of human JAK1, JAK2, JAK3 and TYK2
Summary of the method: as §1

[5] = target: Tyk2 kinase activity on STAT4 in NK92 cells (Homo sapiens, UniProt P29597); assay: pSTAT4 cell assay (MSD; NK92 cells, 30 ng/mL IL2 stimulation); format: cell-based; settings: 30 ng/mL IL2, 15 minutes
Summary of the method: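 IC50 values come from 4-parameter logistic fits of normalized percent activity. Phospho-STAT was read by MSD (anti-STAT4 antibodies) in NK92 lysates after a 15 min stimulation with 30 ng/mL IL2. The serum-starved cells had been given compound for 1 h (10 points, four-fold, top 10 μM).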

[6] = target: JAK2 kinase activity on STAT5 in TF1 cells (Homo sapiens, UniProt O60674); assay: pSTAT5 cell assay (MSD; TF1 cells, 30 ng/mL IL-3 stimulation); format: cell-based; settings: 30 ng/mL IL-3, 15 minutes
Summary of the method: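 IC50 from a 4-parameter logistic fit of normalized pSTAT5 signal, measured by MSD in lysates of TF1 cells. Cells were serum-starved, exposed to compound for 1 h (top concentration 10 μM, four-fold, 10 points), then given IL-3 at 30 ng/mL for 15 min.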

[7] = target: JAK1 kinase activity on STAT3 in TF1 cells (Homo sapiens, UniProt P23458); assay: pSTAT3 cell assay (MSD; TF1 cells, 30 ng/mL IL-6 stimulation); format: cell-based; settings: 30 ng/mL IL-6, 15 minutes
Summary of the method: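 Serum starvation, 1 h compound (10 pt, 4-fold from 10 μM), IL-6 15 min, lysis. pSTAT3 read by MSD immunoassay, anti-STAT3 Abs. Normalized % activity vs log[cpd], 4-PL fit → IC50.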

T4 sequence (P52333 822-1111 limits assumed): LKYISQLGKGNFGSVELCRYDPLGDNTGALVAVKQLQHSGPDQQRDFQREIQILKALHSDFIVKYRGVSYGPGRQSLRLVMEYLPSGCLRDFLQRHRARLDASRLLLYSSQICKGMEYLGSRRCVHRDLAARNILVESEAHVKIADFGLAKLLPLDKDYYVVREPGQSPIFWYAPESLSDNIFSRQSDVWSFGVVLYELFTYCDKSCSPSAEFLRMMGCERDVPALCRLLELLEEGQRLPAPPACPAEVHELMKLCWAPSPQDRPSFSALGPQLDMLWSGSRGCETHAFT
Chain of JAK1 kinase activity on STAT3 in TF1 cells (P23458 whole entry): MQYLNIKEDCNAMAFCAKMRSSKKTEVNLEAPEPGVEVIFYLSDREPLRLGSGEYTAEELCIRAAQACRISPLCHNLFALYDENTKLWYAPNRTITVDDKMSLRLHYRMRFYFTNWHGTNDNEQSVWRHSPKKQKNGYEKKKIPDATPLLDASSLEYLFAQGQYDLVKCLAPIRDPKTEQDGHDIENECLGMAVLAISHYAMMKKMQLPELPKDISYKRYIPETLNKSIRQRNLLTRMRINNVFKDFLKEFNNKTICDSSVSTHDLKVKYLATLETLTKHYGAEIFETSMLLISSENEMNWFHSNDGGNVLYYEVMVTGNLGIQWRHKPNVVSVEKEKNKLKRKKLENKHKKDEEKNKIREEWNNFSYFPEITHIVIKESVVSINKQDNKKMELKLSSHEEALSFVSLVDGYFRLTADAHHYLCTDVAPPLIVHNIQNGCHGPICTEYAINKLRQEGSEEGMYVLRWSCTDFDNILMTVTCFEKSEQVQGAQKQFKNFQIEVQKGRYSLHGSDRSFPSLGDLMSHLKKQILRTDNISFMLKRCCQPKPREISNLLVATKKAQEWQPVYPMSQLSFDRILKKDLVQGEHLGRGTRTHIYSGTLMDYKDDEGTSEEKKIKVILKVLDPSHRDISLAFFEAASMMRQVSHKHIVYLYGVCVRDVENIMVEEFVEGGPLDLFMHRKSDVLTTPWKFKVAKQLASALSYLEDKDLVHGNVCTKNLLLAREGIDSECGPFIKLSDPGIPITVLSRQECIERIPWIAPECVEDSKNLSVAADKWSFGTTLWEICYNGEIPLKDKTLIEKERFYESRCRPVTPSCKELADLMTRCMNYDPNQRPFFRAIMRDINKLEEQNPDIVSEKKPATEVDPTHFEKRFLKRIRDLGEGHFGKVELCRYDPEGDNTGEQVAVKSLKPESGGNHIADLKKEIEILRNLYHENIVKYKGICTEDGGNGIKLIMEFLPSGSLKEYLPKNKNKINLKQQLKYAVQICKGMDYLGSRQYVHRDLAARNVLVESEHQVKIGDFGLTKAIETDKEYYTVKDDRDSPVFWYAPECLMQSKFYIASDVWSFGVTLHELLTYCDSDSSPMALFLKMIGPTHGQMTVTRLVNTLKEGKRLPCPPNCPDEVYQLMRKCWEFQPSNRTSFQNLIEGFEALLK
T3 sequence (O60674 849-1124 limits assumed): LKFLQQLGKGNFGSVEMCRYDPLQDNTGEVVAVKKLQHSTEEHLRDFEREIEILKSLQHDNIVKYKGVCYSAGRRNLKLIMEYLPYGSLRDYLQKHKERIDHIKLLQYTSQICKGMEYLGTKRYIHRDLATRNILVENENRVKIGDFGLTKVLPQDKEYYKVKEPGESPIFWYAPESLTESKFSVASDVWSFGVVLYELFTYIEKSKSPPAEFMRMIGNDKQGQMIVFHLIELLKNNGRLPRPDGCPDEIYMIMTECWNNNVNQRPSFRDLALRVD
T2 sequence (P23458 875-1153 limits assumed): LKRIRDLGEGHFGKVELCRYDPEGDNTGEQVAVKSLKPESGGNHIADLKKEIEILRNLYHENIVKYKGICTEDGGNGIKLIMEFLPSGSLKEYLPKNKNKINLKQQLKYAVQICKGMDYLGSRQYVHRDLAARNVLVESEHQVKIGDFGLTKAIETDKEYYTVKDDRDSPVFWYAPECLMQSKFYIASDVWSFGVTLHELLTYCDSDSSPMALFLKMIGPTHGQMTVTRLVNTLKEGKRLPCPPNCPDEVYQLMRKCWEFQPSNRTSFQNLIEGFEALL
Chain of Tyk2 kinase activity on STAT4 in NK92 cells (P29597 whole entry): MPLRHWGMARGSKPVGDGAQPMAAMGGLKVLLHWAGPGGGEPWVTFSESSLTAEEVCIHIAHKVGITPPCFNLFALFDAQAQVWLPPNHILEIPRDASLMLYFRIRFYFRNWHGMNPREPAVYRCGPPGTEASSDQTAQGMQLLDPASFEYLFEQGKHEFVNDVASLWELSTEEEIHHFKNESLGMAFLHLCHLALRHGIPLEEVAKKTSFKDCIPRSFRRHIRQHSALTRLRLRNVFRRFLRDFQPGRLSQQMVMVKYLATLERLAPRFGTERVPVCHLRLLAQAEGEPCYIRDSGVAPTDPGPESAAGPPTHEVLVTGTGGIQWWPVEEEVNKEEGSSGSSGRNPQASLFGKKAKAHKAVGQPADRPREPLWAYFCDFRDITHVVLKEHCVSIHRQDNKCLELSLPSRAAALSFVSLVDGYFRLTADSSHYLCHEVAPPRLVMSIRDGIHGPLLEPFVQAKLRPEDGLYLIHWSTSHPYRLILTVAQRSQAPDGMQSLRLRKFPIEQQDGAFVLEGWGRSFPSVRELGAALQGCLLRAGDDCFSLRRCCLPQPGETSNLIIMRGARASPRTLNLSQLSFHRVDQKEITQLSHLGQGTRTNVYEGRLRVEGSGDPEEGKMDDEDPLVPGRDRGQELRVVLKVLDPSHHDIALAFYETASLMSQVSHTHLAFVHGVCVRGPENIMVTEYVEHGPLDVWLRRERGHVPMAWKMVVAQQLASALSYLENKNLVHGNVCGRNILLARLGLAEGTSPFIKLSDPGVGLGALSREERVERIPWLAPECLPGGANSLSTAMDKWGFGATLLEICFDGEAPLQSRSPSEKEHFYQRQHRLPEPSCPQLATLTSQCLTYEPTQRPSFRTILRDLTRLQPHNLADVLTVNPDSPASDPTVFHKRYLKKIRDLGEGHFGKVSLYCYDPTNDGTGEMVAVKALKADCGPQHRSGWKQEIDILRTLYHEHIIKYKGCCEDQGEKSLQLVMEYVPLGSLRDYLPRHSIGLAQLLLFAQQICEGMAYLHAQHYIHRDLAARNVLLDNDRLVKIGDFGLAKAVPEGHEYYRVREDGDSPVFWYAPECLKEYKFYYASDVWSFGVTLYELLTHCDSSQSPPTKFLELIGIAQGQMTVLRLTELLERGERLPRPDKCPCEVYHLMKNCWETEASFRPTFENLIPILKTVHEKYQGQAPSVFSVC
Chain of JAK2 kinase activity on STAT5 in TF1 cells (O60674 whole entry): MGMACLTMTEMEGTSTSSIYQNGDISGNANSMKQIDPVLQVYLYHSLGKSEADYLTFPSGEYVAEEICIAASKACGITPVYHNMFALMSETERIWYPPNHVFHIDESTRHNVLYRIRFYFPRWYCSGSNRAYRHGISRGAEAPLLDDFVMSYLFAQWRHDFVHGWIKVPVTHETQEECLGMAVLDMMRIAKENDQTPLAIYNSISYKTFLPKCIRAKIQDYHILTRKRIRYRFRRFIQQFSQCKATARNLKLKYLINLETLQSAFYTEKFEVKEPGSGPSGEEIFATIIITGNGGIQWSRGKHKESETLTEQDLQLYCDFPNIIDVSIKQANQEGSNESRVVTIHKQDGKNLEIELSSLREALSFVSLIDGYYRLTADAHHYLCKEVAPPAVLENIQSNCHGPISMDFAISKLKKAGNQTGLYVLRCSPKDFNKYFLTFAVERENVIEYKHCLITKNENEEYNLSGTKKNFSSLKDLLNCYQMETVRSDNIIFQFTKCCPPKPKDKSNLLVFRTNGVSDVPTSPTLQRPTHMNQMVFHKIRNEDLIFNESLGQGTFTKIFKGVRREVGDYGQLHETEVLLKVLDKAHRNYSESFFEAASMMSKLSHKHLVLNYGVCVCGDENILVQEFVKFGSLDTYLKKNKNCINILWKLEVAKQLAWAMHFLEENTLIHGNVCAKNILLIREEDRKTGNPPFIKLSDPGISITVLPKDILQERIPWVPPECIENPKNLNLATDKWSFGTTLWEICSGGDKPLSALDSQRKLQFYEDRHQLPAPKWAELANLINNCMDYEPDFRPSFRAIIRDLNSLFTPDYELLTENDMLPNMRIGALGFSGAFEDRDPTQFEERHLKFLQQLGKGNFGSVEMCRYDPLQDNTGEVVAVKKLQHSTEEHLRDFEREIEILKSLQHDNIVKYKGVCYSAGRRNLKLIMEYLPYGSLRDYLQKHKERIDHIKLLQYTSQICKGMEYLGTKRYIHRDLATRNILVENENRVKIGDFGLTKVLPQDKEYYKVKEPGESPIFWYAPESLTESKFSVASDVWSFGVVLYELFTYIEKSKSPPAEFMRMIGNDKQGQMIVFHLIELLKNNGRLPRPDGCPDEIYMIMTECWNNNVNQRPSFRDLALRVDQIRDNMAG

IC50 ([1]; JH1 kinase domain, ADP-Glo) [nM]	IC50 ([2]; JH1 kinase domain, ADP-Glo) [nM]	IC50 ([3]; JH1 kinase domain, ADP-Glo) [nM]	IC50 ([4]; JH1 kinase domain, ADP-Glo) [nM]	IC50 [5] [nM]	IC50 [6] [nM]	IC50 [7] [nM]	IC50 ([1]; TYK2 JH1, ADP-Glo) [nM]	IC50 ([2]; JAK1 JH1, ADP-Glo) [nM]	IC50 ([3]; JAK2 JH1, ADP-Glo) [nM]	IC50 ([4]; JAK3 JH1, ADP-Glo) [nM]	SMILES
5 to 20	100 to 1000	100 to 1000	100 to 1000	> 100	> 10000	5000 to 10000					C[C@@H]1CN(c2ccnn3cc(-c4ccc(CC#N)cn4)cc23)C(=O)[C@]1(C#N)C1CC1 [Example 127, (3R,4S)-1-(6-(5-(cyanomethyl)pyridin-2-yl)pyrrolo[1,2-b]pyridazin-4-yl)-3-cyclopropyl-4-methyl-2-oxopyrrolidine-3-carbonitrile trifluoroacetate]
5 to 20	100 to 1000	1000 to 5000	100 to 1000	> 100	> 10000	5000 to 10000					C[C@@H]1CN(c2ccnn3cc(-c4nc5cnccc5s4)cc23)C(=O)[C@]1(C#N)C1CC1 [Example 102, (3R,4S)-3-cyclopropyl-4-methyl-2-oxo-1-(6-(thiazolo[4,5-c]pyridin-2-yl)pyrrolo[1,2-b]pyridazin-4-yl)pyrrolidine-3-carbonitrile trifluoroacetate]
				50 to 100	100 to 1000	100 to 1000	< 5	< 100	100 to 1000	< 100	C[C@@H]1CN(c2nc(-c3ccc(O)nc3)cn3nccc23)C(=O)[C@]1(C#N)C1CC1 [Example 267, (3R,4S)-3-cyclopropyl-1-(6-(6-hydroxypyridin-3-yl)pyrazolo[1,5-a]pyrazin-4-yl)-4-methyl-2-oxopyrrolidine-3-carbonitrile trifluoroacetate]
5 to 20	100 to 1000	100 to 1000	100 to 1000	> 100	> 10000	1000 to 5000					C[C@@H]1CN(c2ccnn3cc(-c4ccc5ncnn5c4)cc23)C(=O)[C@]1(C#N)C1CC1 [Example 57, (3R,4S)-1-(6-([1,2,4]triazolo[1,5-a]pyridin-6-yl)pyrrolo[1,2-b]pyridazin-4-yl)-3-cyclopropyl-4-methyl-2-oxopyrrolidine-3-carbonitrile]
				50 to 100	100 to 1000	1000 to 5000	< 5	100 to 1000	< 100	< 100	C[C@@H]1CN(c2ccnn3cc(-c4cnn(C5CCN(C)CC5)c4)cc23)C(=O)[C@]1(C#N)C1CC1 [Example 331, (3R,4S)-3-cyclopropyl-4-methyl-1-(6-(1-(1-methylpiperidin-4-yl)-1H-pyrazol-4-yl)pyrrolo[1,2-b]pyridazin-4-yl)-2-oxopyrrolidine-3-carbonitrile]
< 5	100 to 1000	100 to 1000	100 to 1000	> 100	5000 to 10000	1000 to 5000					C[C@@H]1CN(c2ccnn3cc(-c4cnn(S(C)(=O)=O)c4)cc23)C(=O)[C@]1(C#N)C1CC1 [Example 163, (3R,4S)-3-cyclopropyl-4-methyl-1-(6-(1-(methylsulfonyl)-1H-pyrazol-4-yl)pyrrolo[1,2-b]pyridazin-4-yl)-2-oxopyrrolidine-3-carbonitrile]
5 to 20	100 to 1000	1000 to 5000	100 to 1000	> 100	> 10000	5000 to 10000					C[C@@H]1CN(c2ccnn3cc(-c4cncc(F)c4)cc23)C(=O)[C@]1(C#N)C1CC1 [Example 84, (3R,4S)-3-cyclopropyl-1-(6-(5-fluoropyridin-3-yl)pyrrolo[1,2-b]pyridazin-4-yl)-4-methyl-2-oxopyrrolidine-3-carbonitrile]

More lines, now with the values behind:

SMILES	IC50 ([1]; JH1 kinase domain, ADP-Glo) [nM]	IC50 ([2]; JH1 kinase domain, ADP-Glo) [nM]	IC50 ([3]; JH1 kinase domain, ADP-Glo) [nM]	IC50 ([4]; JH1 kinase domain, ADP-Glo) [nM]	IC50 [5] [nM]	IC50 [6] [nM]	IC50 [7] [nM]	IC50 ([1]; TYK2 JH1, ADP-Glo) [nM]	IC50 ([2]; JAK1 JH1, ADP-Glo) [nM]	IC50 ([3]; JAK2 JH1, ADP-Glo) [nM]	IC50 ([4]; JAK3 JH1, ADP-Glo) [nM]
COc1cc(-c2cc3c(N4CC[C@](C#N)(C5CC5)C4=O)ccnc3[nH]2)ccn1 [Example 5, (R)-3-cyclopropyl-1-(2-(2-methoxypyridin-4-yl)-1H-pyrrolo[2,3-b]pyridin-4-yl)-2-oxopyrrolidine-3-carbonitrile]	> 100	1000 to 5000	100 to 1000	1000 to 5000	> 100	> 10000	5000 to 10000				
C[C@@H]1CN(c2ccnc3[nH]c(-c4cnn(C)c4)nc23)C(=O)[C@]1(C#N)C1CC1 [Example 181, (3R,4S)-3-cyclopropyl-4-methyl-1-(2-(1-methyl-1H-pyrazol-4-yl)-3H-imidazo[4,5-b]pyridin-7-yl)-2-oxopyrrolidine-3-carbonitrile]	5 to 20	100 to 1000	100 to 1000	100 to 1000	> 100	5000 to 10000	1000 to 5000				
Cc1ncc(-c2cn3nccc3c(N3C[C@@H](C)[C@@](C#N)(C4CC4)C3=O)n2)s1 [Example 239, (3R,4S)-3-cyclopropyl-4-methyl-1-(6-(2-methylthiazol-5-yl)pyrazolo[1,5-a]pyrazin-4-yl)-2-oxopyrrolidine-3-carbonitrile]					50 to 100	1000 to 5000	100 to 1000	< 5	< 100	100 to 1000	< 100
C[C@@H]1CN(c2nc(-c3cnn(C4CCOCC4)c3)cn3ncc(F)c23)C(=O)[C@]1(C#N)C1CC1 [Example 218, (3R,4S)-3-cyclopropyl-1-(3-fluoro-6-(1-(tetrahydro-2H-pyran-4-yl)-1H-pyrazol-4-yl)pyrazolo[1,5-a]pyrazin-4-yl)-4-methyl-2-oxopyrrolidine-3-carbonitrile]					50 to 100	100 to 1000	100 to 1000	< 5	< 100	< 100	< 100
C[C@@H]1CN(c2nc(-c3ccc4nccn4c3)cn3nccc23)C(=O)[C@]1(C#N)C1CC1 [Example 263, (3R,4S)-3-cyclopropyl-1-(6-(imidazo[1,2-a]pyridin-6-yl)pyrazolo[1,5-a]pyrazin-4-yl)-4-methyl-2-oxopyrrolidine-3-carbonitrile trifluoroacetate]					20 to 50	100 to 1000	< 100	< 5	< 100	< 100	< 100
C[C@@H]1CN(c2nc(-c3cnn([C@H]4C[C@](C)(C#N)C4)c3)cn3ncc(F)c23)C(=O)[C@]1(C#N)C1CC1 [Example 308, (3R,4S)-1-(6-(1-((1r,3R)-3-cyano-3-methylcyclobutyl)-1H-pyrazol-4-yl)-3-fluoropyrazolo[1,5-a]pyrazin-4-yl)-3-cyclopropyl-4-methyl-2-oxopyrrolidine-3-carbonitrile]					50 to 100	100 to 1000	100 to 1000	< 5	< 100	< 100	< 100
